System: 25OHD antibody
Conditions: even at a 25OHD3 concentration of 5 ng/ml; 7.5 ng/ml tracer; vitamin D-free serum matrix; OD 450 nm
Protocol: For the ELISA detection of the specific 25OHD competition, 80 μl of vitamin D release reagent were added to serial dilutions of 25OHD3 in vitamin D-free serum matrix (SerCon, Seracare Inc.) in concentrations of 0, 5, 10, 20, 20, 50, 100, 200, 300 ng/ml in the presence of 7.5 ng/ml of biotin-25OHD tracer reagent and applied to microtitre plate wells coated with an anti-25OHD antibody. The binding of the tracer on the basis of the competing 25OHD concentration was determined with peroxidase-labelled streptavidin and a tetramethylbenzidine (TMB) colour reaction by measuring the OD 450 nm.
An antibody against 25-OH-vitamin D3 or 25-OH-vitamin D2 was diluted in Tris-buffered saline pH 8.0 to a concentration of 1 μg/ml. The wells of a microtitre plate (Maxisorb, Nunc) were coated with 100 μl of the diluted antibody, dried at 37° C. and stored at 4° C. until the test was carried out.
Defined concentrations of 25-OHD3 were added to vitamin D-free serum matrix (Seracon, Seracare Inc.). […] The antibody-bound biotin-25OHD tracer was detected with peroxidase-labelled streptavidin and a tetramethylbenzidine (TMB) colour reaction. After the substrate reaction had been stopped by addition of 100 μl of 50 mM phosphoric acid, the optical density was measured at 450 nm.

“3α-[α-biotinamido-ω-dodeca(ethylene glycol)-amido]-25-hydroxy-deoxyvitamin D3 [VD1]” was tested, and the “competition of the tracer by 25OHD3 for binding sites on the 25OHD antibody” value was “specific competition”.
